According to US20100035755A1, “METHOD OF CONTROLLING WEEDS IN A TURF GRASS BY USING SULFONYLUREA COMPOUNDS” (Moghu Research Center Ltd., priority 2008, published 2010):

Key:
[1] = tested on: Digitaria sanguinalis; assay: Actual field condition test of Example 1 (golf course); type: in vivo; conditions: for efficacy in actual field condition: Digitaria sanguinalis (about 4-leaf stage), twenty days after application
Description: (§1) The test chemical of the Example 1 was applied to a turf grass field, in which Digitaria sanguinalis as a representative summer-time poaceae weed and Kyllinga brevifolia as a representative hard-to-control perennial cyperaceae weed are thriving predominantly, to evaluate weed control effect of the compound. The experiment was carried out from May to July, 2008 in the Dae-duk Research Park golf course (Doryong-dong, Yusong-gu, Daejon, South Korea). At the time of the chemical application, Digitaria sanguinalis was at about 4-leaf stage and Kyllinga brevifolia was at growth period.

[2] = tested on: Kyllinga brevifolia; assay: as above; type: in vivo; conditions: for efficacy in actual field condition: Kyllinga brevifolia (growth period), twenty days after application
Description: as §1

Cc1cc(C)nc(NC(=O)NS(=O)(=O)c2ccccc2C(O)C(C)F)n1 (centres unmarked) [Example 1]
efficacy in actual field condition ([1]; 50 g ai/ha): 80
efficacy in actual field condition ([1]; 100 g ai/ha): 90
efficacy in actual field condition ([1]; 200 g ai/ha): 100
weed controlled in actual field ([1]; Digitaria sanguinalis, 50 g ai/ha or more): 80%
efficacy in actual field condition ([2]; 50 g ai/ha): 100
efficacy in actual field condition ([2]; 100 g ai/ha): 100
efficacy in actual field condition ([2]; 200 g ai/ha): 100
weed controlled in actual field ([2]; Kyllinga brevifolia, 50 g ai/ha or more): 100%
